Reference: paper PMC8227885 (Viruses, 2021)

Biological target: SARS-CoV-2 RBD:ACE2 (UniProt P0DTC2+Q9BYF1)
Test: biochemical
Parameters: species or system SARS-CoV-2 (RBD); human (ACE2)

Sequence of SARS-CoV-2 RBD:ACE2 (Q9BYF1 18-615, one chain of several): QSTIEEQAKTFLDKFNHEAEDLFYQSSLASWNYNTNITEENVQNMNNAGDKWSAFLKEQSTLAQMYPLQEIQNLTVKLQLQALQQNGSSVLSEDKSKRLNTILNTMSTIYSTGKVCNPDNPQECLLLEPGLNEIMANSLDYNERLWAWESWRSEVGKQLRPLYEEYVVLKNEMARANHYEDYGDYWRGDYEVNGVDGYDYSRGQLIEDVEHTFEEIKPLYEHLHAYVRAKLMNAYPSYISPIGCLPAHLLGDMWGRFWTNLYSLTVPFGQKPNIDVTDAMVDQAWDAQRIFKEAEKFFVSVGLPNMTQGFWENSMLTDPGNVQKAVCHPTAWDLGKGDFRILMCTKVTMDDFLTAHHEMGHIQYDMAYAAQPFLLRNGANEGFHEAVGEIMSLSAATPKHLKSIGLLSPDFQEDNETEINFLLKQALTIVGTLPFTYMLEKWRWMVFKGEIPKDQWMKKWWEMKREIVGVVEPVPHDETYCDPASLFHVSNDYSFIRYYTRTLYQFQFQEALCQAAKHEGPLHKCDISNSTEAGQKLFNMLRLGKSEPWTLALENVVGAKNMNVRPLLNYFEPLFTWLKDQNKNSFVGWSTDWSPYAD

`O=c1c(O)cc([C@H]2Oc3cc(O)cc(O)c3C[C@H]2O)cc2c([C@H]3Oc4cc(O)cc(O)c4C[C@H]3O)cc(O)c(O)c12` [Theaflavin] was tested, and the IC50 was 41.7 µM and the “effect on SRAE2-BS activity (suppression)” value was “significantly suppressed SRAE2-BS activity”.
